From patent US9120780B2, “Indole or indazole derivative or salt thereof” (TAIHO PHARMACEUTICAL CO., LTD., priority 2011, dated 2015)

Experiments:
[1] = biological target: human HSP90 alpha protein (N-terminal, amino acids 2-236) (Homo sapiens (Human), UniProt P07900); test: Measurement of HSP90-binding activity (AlphaScreen competitive assay, biotin-labeled geldanamycin); conditions: inhibition of biotin-labeled geldanamycin binding to purified HSP90; read-out: HSP-binding activity IC50
Method: First, a solution of purified HSP90 was prepared as follows. […] The pET-HSP90N was introduced into Escherichia coli cells (BL21 (DE3), Stratagene Inc.), and then the Escherichia coli cells were cultured in the presence of 0.5 mM isopropyl-beta-D-thiogalactopyranoside (Sigma-Aldrich Corp.) at 37° C. for 4 hours. The Escherichia coli cells were collected, suspended in a lysis buffer (50 mM Tris-HCl (pH 7.5), 200 mM NaCl), and sonicated. The sonicated cell solution was centrifuged (40,000×g, 20 minutes) to obtain supernatant as a crude extract. The crude extract was fractionated by Ni Sepharose High Performance (GE Healthcare Japan Corporation) chromatography and HiLoad 26/60 Superdex 75 pg (GE Healthcare Japan Corporation), and the fraction in which HSP90 protein was concentrated was prepared so as to be a 50 mM Tris-HCl (pH 7.5)/20% glycerol solution as a purified HSP90 solution. The purified HSP90 solution was divided and stored at −80° C. until use.
The HSP90-binding activity was measured by an AlphaScreen competitive assay system. […] After reaction at room temperature for 2 hours, biotin-labeled geldanamycin was added to each reaction solution in an amount of 40 nM, followed by reaction for further 1 hour. […] After reaction in a dark place at room temperature for 1 hour, the fluorescence intensity in each well was measured with a multilabel plate reader, EnVision (Perkin Elmer, Inc.). The inhibition rate (%) of biotin-labeled geldanamycin binding by a compound of the present invention was determined by the following equation using the fluorescence signal of a test substance-free group (control) as a control. […] Inhibition rate (%)=(C−T)/C×100 T: signal in a well to which a test substance was added C: signal in a well to which no test substance was added

[2] = test system: SK-BR-3 cells; test: Measurement of cell growth inhibition (crystal violet staining); format: cell-based; conditions: Homo sapiens, 72 hours culture with test substance
Method: Cell growth was measured by a crystal violet staining method. […] The cells were cultured in a 5% CO2 incubator at 37° C. for 24 hours, and then test substances were added to the plate, followed by culturing for further 72 hours. […] The plate was left to stand at room temperature for 20 minutes for staining the cells. The plate was washed with water and dried, and 100 μL of a mixed solution of 0.05 M NaH2PO4 and ethanol (mixture in equal amounts) was added to each well. The absorbance at 540 nm was measured with a microplate reader (MTP-450, Corona Electric Co., Ltd.) as an index of the number of cells in each well. The inhibition rate (%) of cell growth by a compound of the present invention was determined by the following equation using the absorbance of a drug-untreated group (control) as a control. […] Inhibition rate (%)=(C−T)/C×100 T: absorbance in a well to which a test substance was added C: absorbance in a well to which no test substance was added

| Structure (SMILES) | IC50 [1] [nM] | IC50 [2] [nM] |
| --- | --- | --- |
| COc1ccc2ccn(-c3ccc(C(N)=O)c(NC4CCC(O)CC4)c3)c2c1 (stereo not shown) [Comparative Example 1, reference compound] | > 100000 | – |
| COc1cccc2c1ccn2-c1ccc(C(N)=O)c(NC2CCC(O)CC2)c1 (stereo not shown) [Comparative Example 2, reference compound] | > 100000 | – |
| COc1cc2ccn(-c3ccc(C#N)c(Nc4ccccc4)c3)c2cc1OC [Comparative Example 3, reference compound] | > 10000 | – |
| COc1cc2ccn(-c3ccc(C(N)=O)c(Nc4ccccc4)c3)c2cc1OC [Comparative Example 4, reference compound] | > 10000 | > 10000 |
| COc1ccc2c(c1)cc(C)n2-c1ccc(C(N)=O)c(Nc2ccccc2)c1 [Comparative Example 5, reference compound] | > 100000 | > 10000 |
| NC(=O)c1ccc(-n2ccc3ccccc32)c(Cl)c1 [Comparative Example 6, reference compound] | > 100000 | – |
| CC(C)c1nn(-c2ccc(C(N)=O)cc2Cl)c2cccc(-n3cnc(-c4cccnc4)c3)c12 [Example 3, 3-Chloro-4-(3-isopropyl-4-(4-(pyridin-3-yl)-1H-imidazol-1-yl)-1H-indazol-1-yl)benzamide] | 740 | 560 |
| Cc1cc(C(N)=O)ccc1-n1nc(C(C)C)c2c(-n3cnc(-c4cccnc4)c3)cccc21 [Example 4, 4-(3-Isopropyl-4-(4-(pyridin-3-yl)-1H-imidazol-1-yl)-1H-indazol-1-yl)-3-methylbenzamide] | 160 | 140 |
| CC(C)c1nn(-c2ccc(C(N)=O)cc2Cl)c2cccc(-n3cnc(-c4cnn(C)c4)c3)c12 [Example 5, 3-Chloro-4-(3-isopropyl-4-(4-(1-methyl-1H-pyrazol-4-yl)-1H-imidazol-1-yl)-1H-indazol-1-yl)benzamide] | 240 | 270 |
| CC(C)c1nn(-c2ccc(C(N)=O)nc2)c2cccc(-n3cnc(-c4cnn(C)c4)c3)c12 [Example 7, 5-(3-Isopropyl-4-(4-(1-methyl-1H-pyrazol-4-yl)-1H-imidazol-1-yl)-1H-indazol-1-yl)-2-pyridinecarboxyamide] | 370 | 1190 |
| CC(C)Nc1cc(C(N)=O)ccc1-n1nc(C(C)C)c2c(-n3cnc(-c4cccnc4)c3)cccc21 [Example 10, 4-(3-Isopropyl-4-(4-(pyridin-3-yl)-1H-imidazol-1-yl)-1H-indazol-1-yl)-3-(isopropylamino)benzamide] | 250 | 100 |
| CC(C)c1nn(-c2ccc(C(N)=O)cc2NC2CCC2)c2cccc(-n3cnc(-c4cccnc4)c3)c12 [Example 11, 3-(Cyclobutylamino)-4-(3-isopropyl-4-(4-(pyridin-3-yl)-1H-imidazol-1-yl)-1H-indazol-1-yl)benzamide] | 300 | 80 |
| CC(C)Nc1cc(C(N)=O)ccc1-n1nc(C(C)C)c2c(-n3cnc(-c4cnn(C)c4)c3)cccc21 [Example 12, 4-(3-Isopropyl-4-(4-(1-methyl-1H-pyrazol-4-yl)-1H-imidazol-1-yl)-1H-indazol-1-yl)-3-(isopropylamino)benzamide] | 120 | 60 |
| CC(C)c1nn(-c2ccc(C(N)=O)cc2NC2CCC2)c2cccc(-n3cnc(-c4cnn(C)c4)c3)c12 [Example 13, 3-(Cyclobutylamino)-4-(3-Isopropyl-4-(4-(1-methyl-1H-pyrazol-4-yl)-1H-imidazol-1-yl)-1H-indazol-1-yl)benzamide] | 200 | 60 |
| Cn1cc(-c2cn(-c3cccc4c3c(C(F)(F)F)nn4-c3ccc(C(N)=O)c(NC(C)(C)C)c3)cn2)cn1 [Example 14, 2-(Tert-butylamino)-4-(4-(4-(1-methyl-1H-pyrazol-4-yl)-1H-imidazol-1-yl)-3-(trifluoromethyl)-1H-indazol-1-yl)benzamide] | 270 | 10 |
| CCNc1cc(-n2nc(C(F)(F)F)c3c(-n4cnc(-c5cnn(C)c5)c4)cccc32)ccc1C(N)=O [Example 15, 2-(Ethylamino)-4-(4-(4-(1-methyl-1H-pyrazol-4-yl)-1H-imidazol-1-yl)-3-(trifluoromethyl)-1H-indazol-1-yl)benzamide] | 230 | 20 |
| CC(C)(C)Nc1cc(-n2nc(C(F)(F)F)c3c(-n4cnc(-c5cccnc5)c4)cccc32)ccc1C(N)=O [Example 16, 2-(Tert-butylamino)-4-(4-(4-(pyridin-3-yl)-1H-imidazol-1-yl)-3-(trifluoromethyl)-1H-indazol-1-yl)benzamide] | 290 | 30 |
| Cc1cc(C(N)=O)ccc1-n1nc(C(F)(F)F)c2c(-n3cnc(-c4cccnc4)c3)cccc21 [Example 17, 3-Methyl-4-(4-(4-(pyridin-3-yl)-1H-imidazol-1-yl)-3-(trifluoromethyl)-1H-indazol-1-yl)benzamide] | 490 | 300 |
| CCc1cc(C(N)=O)ccc1-n1nc(C(F)(F)F)c2c(-n3cnc(-c4cnn(C)c4)c3)cccc21 [Example 18, 3-Ethyl-4-(4-(4-(1-methyl-1H-pyrazol-4-yl)-1H-imidazol-1-yl)-3-(trifluoromethyl)-1H-indazol-1-yl)benzamide] | 90 | 50 |
| CCc1cc(C(N)=O)ccc1-n1nc(C(F)(F)F)c2c(-n3cnc(-c4cccnc4)c3)cccc21 [Example 19, 3-Ethyl-4-(4-(4-(pyridin-3-yl)-1H-imidazol-1-yl)-3-(trifluoromethyl)-1H-indazol-1-yl)benzamide] | 170 | 100 |
| CC(C)Nc1cc(C(N)=O)ccc1-n1nc(C(F)(F)F)c2c(-n3cnc(-c4cnn(C)c4)c3)cccc21 [Example 20, 3-(Isopropylamino)-4-(4-(4-(1-methyl-1H-pyrazol-4-yl)-1H-imidazol-1-yl)-3-(trifluoromethyl)-1H-indazol-1-yl)benzamide] | 140 | 90 |
| Cn1cc(-c2cn(-c3cccc4c3c(C(F)(F)F)nn4-c3ccc(C(N)=O)cc3NC3CCC3)cn2)cn1 [Example 21, 3-(Cyclobutylamino)-4-(4-(4-(1-methyl-1H-pyrazol-4-yl)-1H-imidazol-1-yl)-3-(trifluoromethyl)-1H-indazol-1-yl)benzamide] | 150 | 70 |
| CC(C)Nc1cc(C(N)=O)ccc1-n1nc(C(F)(F)F)c2c(-n3cnc(-c4cccnc4)c3)cccc21 [Example 22, 3-(Isopropylamino)-4-(4-(4-(pyridin-3-yl)-1H-imidazol-1-yl)-3-(trifluoromethyl)-1H-indazol-1-yl)benzamide] | 140 | 120 |
| NC(=O)c1ccc(-n2nc(C(F)(F)F)c3c(-n4cnc(-c5cccnc5)c4)cccc32)c(NC2CCC2)c1 [Example 23, 3-(Cyclobutylamino)-4-(4-(4-(pyridin-3-yl)-1H-imidazol-1-yl)-3-(trifluoromethyl)-1H-indazol-1-yl)benzamide] | 280 | 170 |
| Cn1cc(-c2cn(-c3cccc4c3c(C(F)(F)F)nn4-c3ccc(C(N)=O)cc3N)cn2)cn1 [Example 24, 3-Amino-4-(4-(4-(1-methyl-1H-pyrazol-4-yl)-1H-imidazol-1-yl)-3-(trifluoromethyl)-1H-indazol-1-yl)benzamide] | 80 | 130 |
| NC(=O)c1ccc(-n2nc(C(F)(F)F)c3c(-n4cnc(-c5cccnc5)c4)cccc32)c(N)c1 [Example 25, 3-Amino-4-(4-(4-(pyridin-3-yl)-1H-imidazol-1-yl)-3-(trifluoromethyl)-1H-indazol-1-yl)benzamide] | 100 | 170 |
| Cc1cn(-c2ccc(C(N)=O)c(NC(C)(C)C)c2)c2cccc(-n3cnc(-c4cnn(C)c4)c3)c12 [Example 46, 2-(Tert-butylamino)-4-{3-methyl-4-(4-(1-methyl-1H-pyrazolo-4-yl)-1H-imidazolo-1-yl)-1H-indol-1-yl}benzamide] | 190 | 50 |
| Cc1cn(-c2ccc(C(N)=O)c(NC(C)(C)C)c2)c2cccc(-n3cnc(-c4cccnc4)c3)c12 [Example 47, 2-(Tert-butylamino)-4-{3-methyl-4-(4-(pyridin-3-yl)-1H-imidazolo-1-yl)-1H-indol-1-yl}benzamide] | 430 | 120 |
